Assay results as given in patent publication US20040220260A1, “Use of mono-or di-esters of cinnamic acid or of one of its derivatives and vitamin C, as donor of NO” (L'OREAL S.A., priority 2003, published 2004).

Tests used:
[1] = molecular target: T1, inducible NO synthase (NOS2) (Homo sapiens, UniProt P35228); assay: screening test of the modulation of induction of NOS2 by normal human keratinocytes (nitrite/nitrate measurement); format: cell-based; conditions: for % inhibition: normal human keratinocytes, NOS2 induced by cytokines, nitrites and nitrates measured
T1 construct: endogenous in cells; host or cells: normal human keratinocytes (primary culture), induced with interferon-γ and interleukin 1-β
T1 sequence (P35228 whole entry): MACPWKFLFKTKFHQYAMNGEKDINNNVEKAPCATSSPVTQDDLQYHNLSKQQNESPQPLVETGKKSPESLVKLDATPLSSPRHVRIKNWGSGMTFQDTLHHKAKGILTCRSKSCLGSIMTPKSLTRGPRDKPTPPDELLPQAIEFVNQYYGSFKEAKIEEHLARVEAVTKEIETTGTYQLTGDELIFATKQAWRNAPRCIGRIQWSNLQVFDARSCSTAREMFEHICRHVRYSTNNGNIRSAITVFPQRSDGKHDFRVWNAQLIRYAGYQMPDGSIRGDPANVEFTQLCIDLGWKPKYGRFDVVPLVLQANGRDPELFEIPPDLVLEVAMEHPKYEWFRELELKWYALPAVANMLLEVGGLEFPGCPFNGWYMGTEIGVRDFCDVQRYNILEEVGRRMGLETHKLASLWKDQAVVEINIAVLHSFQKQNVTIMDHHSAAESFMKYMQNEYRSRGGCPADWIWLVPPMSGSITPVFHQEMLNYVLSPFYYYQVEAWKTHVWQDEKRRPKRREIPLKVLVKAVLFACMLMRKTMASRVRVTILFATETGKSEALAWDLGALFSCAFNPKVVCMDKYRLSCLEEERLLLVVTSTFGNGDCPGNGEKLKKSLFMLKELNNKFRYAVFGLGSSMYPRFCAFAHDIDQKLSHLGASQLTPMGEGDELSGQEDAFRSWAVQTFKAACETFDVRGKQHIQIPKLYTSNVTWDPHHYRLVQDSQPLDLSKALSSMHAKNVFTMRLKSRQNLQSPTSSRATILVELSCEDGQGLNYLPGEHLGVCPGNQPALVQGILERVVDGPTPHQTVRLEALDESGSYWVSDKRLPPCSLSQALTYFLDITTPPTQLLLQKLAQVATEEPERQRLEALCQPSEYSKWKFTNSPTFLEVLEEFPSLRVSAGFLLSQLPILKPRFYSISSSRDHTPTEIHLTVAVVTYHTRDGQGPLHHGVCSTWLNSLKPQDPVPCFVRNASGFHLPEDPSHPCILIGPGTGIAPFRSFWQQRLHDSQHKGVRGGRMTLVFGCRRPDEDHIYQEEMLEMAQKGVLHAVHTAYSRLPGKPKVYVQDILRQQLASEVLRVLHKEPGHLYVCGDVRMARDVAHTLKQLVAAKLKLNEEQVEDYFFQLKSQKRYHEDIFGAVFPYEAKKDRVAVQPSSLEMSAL
Protocol: The activity of ascorbyl 2-O-cinnamate on the inducible NO synthase was evaluated in the assay described by Heck et al. (J.B.C., vol. 267, No. 30, 21277-21280, 25 Oct. 1992), a screening test of the modulation of induction of NOS2 by normal human keratinocytes. The objective of this test is, briefly, to evaluate the concentration of nitrate and nitrite after stimulation of the NO-synthase 2.
The test is carried out on a culture of normal human keratinocytes, derived from samples taken. The induction of the inducible NO synthase (NOS2) was caused by the addition of a combination of several cytokines to the culture medium. The product tested was applied at three concentrations varying from […] to 1000 μM.
The product tested was classed in one of the following two categories: inhibitor (I) or donor (D) of NO (nitric oxide) according to its capacity to diminish or increase, respectively, the quantity of nitrites and nitrates produced compared to the control signal […].
The following controls were introduced in the test:
A: positive control (induction of the enzyme): mixtures of interferon-γ (1000 u/ml) and interleukin 1-β (100 u/ml)
In order to determine the activity of the test product the quantity of stable NO reaction products (nitrites and nitrates) is measured with the aid of the “nitric calorimetric assay” kit sold by the Boehringer company under catalogue number 1756.28.
Ascorbyl 2-O-cinnamate was tested at concentrations of 100 μM, 500 μM and 1000 μM in ethanol

[2] = tested on: normal human keratinocytes; assay: cytotoxicity (% diminution of the signal compared with the control); format: cell-based; conditions: % diminution of signal vs control; not very cytotoxic 0-20%, acceptable up to 40%, not retained >40%
From the text: Moreover, the cytotoxicity was expressed as % diminution of the signal compared with the control. A product was considered to be not very cytotoxic from 0-20%, acceptable up to 40% and not retained for values >40%.

Compound: O=C(/C=C/c1ccccc1)OC1=C(O)[C@@H]([C@@H](O)CO)OC1=O [Ascorbyl 2-O-cinnamate, ascorbyl 2-O-cinnamate]
- % inhibition ([1]; 100 μM in ethanol): 24.79%
- % inhibition ([1]; 500 μM in ethanol): 53.74%
- % inhibition ([1]; 1000 μM in ethanol): 74.4%
- classification as inhibitor (I) or donor (D) of NO ([1]; according to capacity to diminish or increase the quantity of nitrites and nitrates produced compared to the control signal): NO donor effect
- cytotoxicity [2]: not toxic
